Read-outs that look alike come from different tables or passages of the source. Where only a bound is given, the exact number is not on record here.

In test [1] the target is biotinylated Avi-POLθ[2-894] (Homo sapiens (Human), UniProt O75417). Briefly: POLθ ATPase assay (ADP-Glo). Conditions: n=2, read-out: Biochemical ATPase ADPGlo IC50. (In general: In ADP-Glo the light output rises with the ADP produced.)
The next test concerns DLD1 BRCA2 (−/−) cells. The experiment in a line: 7-day cell viability assay (CellTiter-Glo), DLD1 BRCA2 (−/−). The note with it: Homo sapiens, DLD-1, 168 h, n=2, read-out: Viability IC50 (uM) DLD1 BRCA2 null. It counts as cell-based, human. The method in brief:
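7-day growth assay in DLD1 cells with or without BRCA2; seeding densities chosen to keep log-linear growth. Compound: 10 uM top, 3-fold, 9 points. Endpoint: CTG ATP luminescence at RT.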

For another test, the system named is DLD1 WT cells. Briefly: 7-day cell viability assay (CellTiter-Glo), DLD1 parental (WT). The format is cell-based, human. Conditions: Homo sapiens, DLD-1, 168 h, n=2. A general note: In ATP-based viability assays light output follows the ATP content of the culture.

Chain of biotinylated Avi-POLθ[2-894] (O75417 2-894): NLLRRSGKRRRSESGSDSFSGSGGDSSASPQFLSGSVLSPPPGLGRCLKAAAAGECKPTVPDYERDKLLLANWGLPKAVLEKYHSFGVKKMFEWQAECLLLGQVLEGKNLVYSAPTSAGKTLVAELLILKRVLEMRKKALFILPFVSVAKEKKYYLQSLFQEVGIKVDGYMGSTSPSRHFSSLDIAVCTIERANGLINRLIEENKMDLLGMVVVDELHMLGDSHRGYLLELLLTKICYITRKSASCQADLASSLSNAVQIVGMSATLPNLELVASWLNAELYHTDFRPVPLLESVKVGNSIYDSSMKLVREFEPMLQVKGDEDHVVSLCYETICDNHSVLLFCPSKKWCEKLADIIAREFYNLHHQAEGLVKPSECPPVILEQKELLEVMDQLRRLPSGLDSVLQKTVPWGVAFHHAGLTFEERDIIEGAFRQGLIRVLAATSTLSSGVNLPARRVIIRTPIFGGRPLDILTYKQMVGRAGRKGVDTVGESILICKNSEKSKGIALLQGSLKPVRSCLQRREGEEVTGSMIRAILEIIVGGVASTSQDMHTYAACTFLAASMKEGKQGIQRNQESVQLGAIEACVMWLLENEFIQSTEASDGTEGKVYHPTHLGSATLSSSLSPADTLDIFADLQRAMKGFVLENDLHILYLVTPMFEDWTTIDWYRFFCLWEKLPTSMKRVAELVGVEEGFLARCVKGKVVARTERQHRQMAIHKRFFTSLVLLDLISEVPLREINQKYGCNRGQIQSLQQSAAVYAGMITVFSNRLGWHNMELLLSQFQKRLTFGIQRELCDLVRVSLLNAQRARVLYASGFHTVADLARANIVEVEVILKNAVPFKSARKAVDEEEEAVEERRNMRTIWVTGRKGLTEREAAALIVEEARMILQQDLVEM

Usually IC50 stands for the concentration that inhibits the measured activity by half. In the case of `COc1cnc(Cl)cc1-c1cc(C)ncc1C(=O)Nc1nc2c(s1)CN(C(=O)C1CCCC(OC)C1)C2` (racemic) [Example 128, (Racemic) 2′-chloro-5′-methoxy-N-(5-(3-methoxycyclohexane-1-carbonyl)-5,6-dihydro-4H-pyrrolo[3,4-d]thiazol-2-yl)-6-methyl-[4,4′-bipyridine]-3-carboxamide], the IC50 in test [1] was 1 to 15 nM; with DLD1 BRCA2 (−/−) cells (7-day viability), 0.001 to 0.1 µM; with DLD1 WT cells (7-day viability), at least 10 µM.
Turning to `COc1cnc(Cl)cc1-c1cc(C)ncc1C(=O)Nc1nc2c(s1)CN(C(=O)c1cc3n(n1)CCC3)C2` [Example 63, 2′-chloro-N-(5-(5,6-dihydro-4H-pyrrolo[1,2-b]pyrazole-2-carbonyl)-5,6-dihydro-4H-pyrrolo[3,4-d]thiazol-2-yl)-5′-methoxy-6-methyl-[4,4′-bipyridine]-3-carboxamide], the IC50 fell in the range of 1 to 15 nM in test [1], 0.001 to 0.1 µM with DLD1 BRCA2 (−/−) cells (7-day viability) and 5 to 10 µM with DLD1 WT cells (7-day viability).
On to `COc1cnc(Cl)cc1-c1cc(C)ncc1C(=O)Nc1nc2c(s1)CN(C(=O)c1ccc(OC)c(Cl)n1)C2` [Example 395, 2′-chloro-N-(5-(6-chloro-5-methoxypicolinoyl)-5,6-dihydro-4H-pyrrolo[3,4-d]thiazol-2-yl)-5′-methoxy-6-methyl-[4,4′-bipyridine]-3-carboxamide], for which the IC50 in test [1] (POLθ ATPase, ADP-Glo) was 1 to 15 nM; with DLD1 BRCA2 (−/−) cells (7-day CellTiter-Glo) it was 0.001 to 0.1 µM; in the test on DLD1 WT cells (7-day CellTiter-Glo), at least 10 µM.
In the case of `COc1ccc(C#N)cc1-c1cc(C)ncc1C(=O)Nc1nc2c(s1)CN(C(=O)C1CC(CC(F)F)C1)C2` (stereo not drawn), the IC50 in test [1] was 1 to 15 nM; with DLD1 BRCA2 (−/−) cells (7-day viability), 0.5 to 2 µM; in the test on DLD1 WT cells (7-day viability) it was at least 10 µM.
With `COc1cnc(Cl)cc1-c1cc(C)ncc1C(=O)Nc1nc2c(s1)CN(C(=O)c1ccnn1C)C2` [Example 170], the IC50 was 1 to 15 nM in test [1], 0.1 to 0.25 µM in the test with DLD1 BRCA2 (−/−) cells (7-day viability) and at least 10 µM with DLD1 WT cells (7-day viability).
The corresponding values for `COc1cnc(Cl)cc1-c1cc(C)ncc1C(=O)Nc1nc2c(s1)CN(C(=O)C1CC3(CC(O)C3)C1)C2` (stereo not drawn) [Example 148] are 1 to 15 nM, 0.1 to 0.25 µM and at least 10 µM.
The corresponding values for `COc1ccc(C#N)cc1-c1cc(C)ncc1C(=O)Nc1nc2c(s1)CN(C(=O)c1c(Cl)cnn1C)C2` [Example 123] are 1 to 15 nM, 0.001 to 0.1 µM and at least 10 µM.
Consider `COc1ccc(C#N)cc1-c1cc(C)ncc1C(=O)Nc1nc2c(s1)CN(C(=O)c1ccc(C(F)F)c(F)c1)C2`, for which the IC50 in test [1] (POLθ ATPase, ADP-Glo) is 1 to 15 nM; in the test on DLD1 BRCA2 (−/−) cells (7-day CellTiter-Glo) it was 0.001 to 0.1 µM; in the test with DLD1 WT cells (7-day CellTiter-Glo), at least 10 µM.
In the same order, the values of `COc1cnc(Cl)cc1-c1cc(C)ncc1C(=O)Nc1nc2c(s1)CN(C(=O)c1ccc(C(F)(F)F)c(Cl)n1)C2` are 1 to 15 nM, 0.001 to 0.1 µM and at least 10 µM.
With `COc1cnc(Cl)cc1-c1cc(C)ncc1C(=O)Nc1nc2c(s1)CN(C(=O)c1cnc(C)cn1)C2`, the IC50 in test [1] (POLθ ATPase, ADP-Glo) is 1 to 15 nM; with DLD1 BRCA2 (−/−) cells (7-day CellTiter-Glo), 0.001 to 0.1 µM; in the test with DLD1 WT cells (7-day CellTiter-Glo) it was 2 to 5 µM.
Consider `COc1cnc(Cl)cc1-c1cc(C)ncc1C(=O)Nc1nc2c(s1)CN(C(=O)c1ccc(C)cn1)C2` [Example 199], for which the figures for the IC50 (in test [1]; in the test on DLD1 BRCA2 (−/−) cells (7-day viability); in the test on DLD1 WT cells (7-day viability)) were 1 to 15 nM, 0.1 to 0.25 µM and 5 to 10 µM, respectively.
The corresponding values for `COc1cnc(Cl)cc1-c1cc(C)ncc1C(=O)Nc1nc2c(s1)CN(C(=O)c1ncc(C(F)F)cc1Cl)C2` are 1 to 15 nM, 0.1 to 0.25 µM and at least 10 µM.
As to `COc1cnc(Cl)cc1-c1cc(C)ncc1C(=O)Nc1nc2c(s1)CN(C(=O)C1CCC(OC(F)(F)F)C1)C2` (racemic) [Example 397, (Racemic) 2′-chloro-5′-methoxy-6-methyl-N-(5-(3-(trifluoromethoxy)cyclopentane-1-carbonyl)-5,6-dihydro-4H-pyrrolo[3,4-d]thiazol-2-yl)-[4,4′-bipyridine]-3-carboxamide], the IC50 in test [1] (POLθ ATPase, ADP-Glo) was 1 to 15 nM; with DLD1 BRCA2 (−/−) cells (7-day CellTiter-Glo), 0.001 to 0.1 µM; in the test with DLD1 WT cells (7-day CellTiter-Glo), at least 10 µM.
In the same order, the values of `COc1cnc(Cl)cc1-c1cc(C)ncc1C(=O)Nc1nc2c(s1)CN(C(=O)c1ccc(F)c(C(F)F)n1)C2` are 1 to 15 nM, 0.001 to 0.1 µM and at least 10 µM.
Turning to `COc1ccc(C#N)cc1-c1cc(C)ncc1C(=O)Nc1nc2c(s1)CN(S(=O)(=O)NC(C)C)C2` [Example 269], the IC50 in test [1] was 1 to 15 nM; with DLD1 BRCA2 (−/−) cells (7-day viability) it was at least 2 µM; in the test on DLD1 WT cells (7-day viability), at least 10 µM.
For the compound `COc1cnc(Cl)cc1-c1cc(C)ncc1C(=O)Nc1nc2c(s1)CN(C(=O)c1c(C)nn(C)c1C(F)F)C2` [Example 6, 2′-chloro-N-(5-(5-(difluoromethyl)-1,3-dimethyl-1H-pyrazole-4-carbonyl)-5,6-dihydro-4H-pyrrolo[3,4-d]thiazol-2-yl)-5′-methoxy-6-methyl-[4,4′-bipyridine]-3-carboxamide], the IC50 in test [1] is 1 to 15 nM; in the test on DLD1 BRCA2 (−/−) cells (7-day viability), 0.001 to 0.1 µM; in the test on DLD1 WT cells (7-day viability) it was at least 10 µM.
As for `COc1ccc(C#N)cc1-c1cc(C)ncc1C(=O)Nc1nc2c(s1)CN(S(=O)(=O)N1CCOCC1)C2`, the 50% inhibitory concentration (IC50) in test [1] is 1 to 15 nM; in the test on DLD1 BRCA2 (−/−) cells (7-day viability), at least 2 µM; in the test with DLD1 WT cells (7-day viability), at least 10 µM.
The corresponding values for `COc1ccc(C#N)cc1-c1cc(C)ncc1C(=O)Nc1nc2c(s1)CN(C(=O)[C@H]1C[C@@H](C#N)C1)C2` are 1 to 15 nM, at least 2 µM and at least 10 µM.
The corresponding values for `COc1ccc(C#N)cc1-c1cc(C)ncc1C(=O)Nc1nc2c(s1)CN(C(=O)c1ccccn1)C2` [Example 276] are 1 to 15 nM, at least 2 µM and at least 10 µM.
On to `COc1cnc(Cl)cc1-c1cc(C)ncc1C(=O)Nc1nc2c(s1)CN(C(=O)c1c(C)nn(C)c1Cl)C2` [Example 5, 2′-chloro-N-(5-(5-chloro-1,3-dimethyl-1H-pyrazole-4-carbonyl)-5,6-dihydro-4H-pyrrolo[3,4-d]thiazol-2-yl)-5′-methoxy-6-methyl-[4,4′-bipyridine]-3-carboxamide], for which the IC50 in test [1] was 1 to 15 nM; with DLD1 BRCA2 (−/−) cells (7-day viability), 0.001 to 0.1 µM; in the test with DLD1 WT cells (7-day viability), at least 10 µM.
Take `COc1cnc(Cl)cc1-c1cc(C)ncc1C(=O)Nc1nc2c(s1)CN(C(=O)c1cc(C(F)F)ccc1F)C2` [Example 398, 2′-chloro-N-(5-(5-(difluoromethyl)-2-fluorobenzoyl)-5,6-dihydro-4H-pyrrolo[3,4-d]thiazol-2-yl)-5′-methoxy-6-methyl-[4,4′-bipyridine]-3-carboxamide]: the IC50 in test [1] (POLθ ATPase, ADP-Glo) was 1 to 15 nM; in the test on DLD1 BRCA2 (−/−) cells (7-day CellTiter-Glo), 0.001 to 0.1 µM; in the test with DLD1 WT cells (7-day CellTiter-Glo) it was at least 10 µM.
On to `COc1cnc(Cl)cc1-c1cc(C)ncc1C(=O)Nc1nc2c(s1)CN(C(=O)c1cn(C)nc1Cl)C2` [Example 161], for which the IC50 was 1 to 15 nM in test [1], 0.5 to 2 µM with DLD1 BRCA2 (−/−) cells (7-day viability) and at least 10 µM in the test on DLD1 WT cells (7-day viability).
The corresponding values for `COc1cnc(Cl)cc1-c1cc(C)ncc1C(=O)Nc1nc2c(s1)CN(C(=O)C1CCC(OC(F)F)C1)C2` (stereo not drawn) are 1 to 15 nM, 0.001 to 0.1 µM and at least 10 µM.
In the same order, the values of `COc1cnc(Cl)cc1-c1cc(C)ncc1C(=O)Nc1nc2c(s1)CN(C(=O)c1ncc(C(F)(F)F)cc1OC)C2` [Example 38, 2′-chloro-5′-methoxy-N-(5-(3-methoxy-5-(trifluoromethyl)picolinoyl)-5,6-dihydro-4H-pyrrolo[3,4-d]thiazol-2-yl)-6-methyl-[4,4′-bipyridine]-3-carboxamide] are 1 to 15 nM, 0.001 to 0.1 µM and at least 10 µM.
As for `COc1ccc(C#N)cc1-c1cc(C)ncc1C(=O)Nc1nc2c(s1)CN(C(=O)c1ncccc1C)C2`, the figures for the IC50 (in test [1]; in the test on DLD1 BRCA2 (−/−) cells (7-day viability); in the test on DLD1 WT cells (7-day viability)) were 1 to 15 nM, 0.5 to 2 µM and at least 10 µM, respectively.
For `COc1ccc(Cl)c(C(=O)N2Cc3nc(NC(=O)c4cnc(C)cc4-c4cc(Cl)ncc4OC)sc3C2)n1`, the IC50 was 1 to 15 nM in test [1] (POLθ ATPase, ADP-Glo); 0.001 to 0.1 µM in the test with DLD1 BRCA2 (−/−) cells (7-day CellTiter-Glo); at least 10 µM with DLD1 WT cells (7-day CellTiter-Glo).
In the same order, the values of `COc1ccc(C(=O)N2Cc3nc(NC(=O)c4cnc(C)cc4-c4cc(Cl)ncc4OC)sc3C2)c(Cl)n1` are 1 to 15 nM, 0.001 to 0.1 µM and at least 10 µM.
On to `COc1ncc(Cl)cc1-c1cc(C)ncc1C(=O)Nc1nc2c(s1)CN(C(=O)c1ccccn1)C2` [Example 118], for which the figures for the IC50 (in test [1]; in the test on DLD1 BRCA2 (−/−) cells (7-day viability); in the test on DLD1 WT cells (7-day viability)) were 1 to 15 nM, 0.001 to 0.1 µM and 2 to 5 µM, respectively.
Consider `COc1nnc(Cl)cc1-c1cc(C)ncc1C(=O)Nc1nc2c(s1)CN(C(=O)c1ccc(C(F)F)cn1)C2`, for which the IC50 in test [1] (POLθ ATPase, ADP-Glo) was 1 to 15 nM; in the test on DLD1 BRCA2 (−/−) cells (7-day CellTiter-Glo), 0.001 to 0.1 µM; in the test with DLD1 WT cells (7-day CellTiter-Glo), at least 10 µM.
Take `COc1cnc(Cl)cc1-c1cc(C)ncc1C(=O)Nc1nc2c(s1)CN(C(=O)c1ccnc(C)c1)C2` [Example 194]: the IC50 is 1 to 15 nM in test [1], 0.001 to 0.1 µM in the test on DLD1 BRCA2 (−/−) cells (7-day viability) and at least 10 µM in the test with DLD1 WT cells (7-day viability).
